Experiment [1] concerns the target T1, PIP4K2B (Homo sapiens, UniProt P78356).
T1 construct: made in house; host or cells: E. coli
T1 sequence (P78356 1-416): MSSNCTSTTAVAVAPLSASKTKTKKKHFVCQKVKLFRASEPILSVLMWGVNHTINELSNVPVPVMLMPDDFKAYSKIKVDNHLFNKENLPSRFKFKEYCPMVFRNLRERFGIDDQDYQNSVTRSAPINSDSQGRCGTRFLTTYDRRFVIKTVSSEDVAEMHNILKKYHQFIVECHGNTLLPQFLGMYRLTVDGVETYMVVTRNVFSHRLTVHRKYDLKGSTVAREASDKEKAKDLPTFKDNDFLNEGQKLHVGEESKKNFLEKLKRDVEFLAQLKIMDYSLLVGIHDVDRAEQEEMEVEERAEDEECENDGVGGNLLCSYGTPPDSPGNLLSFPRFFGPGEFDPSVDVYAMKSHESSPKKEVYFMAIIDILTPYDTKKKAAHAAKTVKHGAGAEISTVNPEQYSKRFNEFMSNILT
Put plainly: Trans-FI P kinase assay PIP4K2B (Table 4). Type of experiment: biochemical. To be noted: compounds listed under IC50 bins; read-out: Trans-FI P kinase assays: PIP4K2B IC50. Put shortly:
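Transcreener FI detection (Ex 584/Em 623) of GDP, converted via calibration curve, gives IC50 from residual activity versus log concentration (highest 4.8 μM). Reaction: 80 μM PI5P plus DOPE carrier, 100 μM GTP, 5 nM GST-tagged enzyme, pH 7.3 HEPES with MgCl2 and 5% DMSO, 2 h after 1 h enzyme-compound preincubation at 27° C.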

Experiment [2] concerns the target T2, PIP4K2A (Homo sapiens, UniProt P48426).
T2 sequence (P48426 1-406): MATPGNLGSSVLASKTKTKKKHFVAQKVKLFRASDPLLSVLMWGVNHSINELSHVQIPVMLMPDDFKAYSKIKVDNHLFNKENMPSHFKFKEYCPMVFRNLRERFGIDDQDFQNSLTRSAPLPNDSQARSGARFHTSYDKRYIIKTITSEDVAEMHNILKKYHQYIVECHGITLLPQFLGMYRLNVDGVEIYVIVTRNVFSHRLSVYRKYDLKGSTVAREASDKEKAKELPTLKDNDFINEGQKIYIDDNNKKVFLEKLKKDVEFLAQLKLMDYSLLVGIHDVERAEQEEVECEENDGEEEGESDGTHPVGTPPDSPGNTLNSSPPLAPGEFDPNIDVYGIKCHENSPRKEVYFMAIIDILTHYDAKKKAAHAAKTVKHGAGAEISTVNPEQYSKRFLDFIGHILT
In words: ADP-glo kinase assay PIP4K 2A (Table 3). The experiment is classed as biochemical. More on the design: made in house; host or cells: E. coli. Conditions: compounds listed under IC50 bins. As to the method: Dilution series of the compounds were prepared in DMSO at 100 times the final assay concentration (n1=n0/3 in 10 points). The compounds were further diluted to three times the assay concentration in assay buffer (20 mM MOPS pH 7.2, 25 mM magnesium chloride, 0.005% Tween 20). 6 μL of the diluted compounds were added to a 384 well assay plate followed by 9 μL of a mix consisting of 4 nM PIP4K2A (full length protein, SignalChem) and 100 μM PI(5)P diC8 (Tebu-Bio). Enzyme and compounds were pre-incubated at room temperature for 15 minutes.
Then 3 μL of a solution containing 60 μM ATP (Promega) in assay buffer was added to the wells containing compound and enzyme and mixing was performed by pipetting several times. The reaction was incubated at room temperature for 1 h. Then 18 μL of ADP-Glo™ Reagent (Promega) was added to stop the kinase reaction and deplete the unconsumed ATP, mixing was performed by pipetting several times. The plate was incubated at room temperature for 40 minutes before addition of 36 μL of Kinase Detection Reagent (Promega) to convert ADP to ATP and introduce luciferase and luciferin to detect ATP. The reaction was incubated at room temperature for 40 minutes before the luminescence was measured in a in a Victor 3V 1420 multilabel counter (Perkin Elmer).
Percent inhibition of the compounds as compared to dimethyl sulfoxide treated control samples was calculated. Compound concentration versus percent inhibition were fitted to generate IC50 values. […]
For orientation: ADP-Glo first removes unused ATP, then detects ADP through luciferase.

In the case of `O=C(Nc1cncc(Nc2ccc(-c3ccc(N4CCCC4=O)cc3)cn2)c1)C1CC1c1ccccc1` (stereo not drawn) [Example 247, N-(5-((5-(4-(2-oxopyrrolidin-1-yl)phenyl)pyridin-2-yl)amino)pyridin-3-yl)-2-phenylcyclopropane-1-carboxamide], the IC50 – broadly, the midpoint of a concentration-inhibition curve – lay in the range of 10 to 100 nM in experiment [1] and 1 to 10 nM in experiment [2].
As for `CC1CN(C(=O)Nc2cncc(Nc3ccc(-c4ccc(N5CCCC5=O)cc4)cn3)c2)CCO1` (stereo not drawn) [Example 250, 2-methyl-N-(5-((5-(4-(2-oxopyrrolidin-1-yl)phenyl)pyridin-2-yl)amino)pyridin-3-yl)morpholine-4-carboxamide], the results for the IC50 in experiment [1] and in experiment [2] were 10 to 100 nM and 100 to 1000 nM, respectively.
For `CC1(C)C[C@H]2COc3ncc(Nc4ccc(-c5ccc(N6CCCC6=O)cc5)cn4)cc3N2C1=O` [Example 255, (S)-8,8-dimethyl-2-((5-(4-(2-oxopyrrolidin-1-yl)phenyl)pyridin-2-yl)amino)-6,6a,7,8-tetrahydro-9H-pyrido[2,3-b]pyrrolo[1,2-d][1,4]oxazin-9-one] the same measures were 10 to 100 nM and 1 to 10 nM.
For `O=C(Nc1cncc(Nc2ccc(-c3ccc(N4CCCC4=O)cc3)cn2)c1)N1CCNC(C2CC2)C1` (stereo not drawn) [Example 257, 3-cyclopropyl-N-(5-((5-(4-(2-oxopyrrolidin-1-yl)phenyl)pyridin-2-yl)amino)pyridin-3-yl)piperazine-1-carboxamide] the same measures were 10 to 100 nM and 100 to 1000 nM.
The corresponding values for `CN(C)CCCC(=O)Nc1cccc(CCC(=O)Nc2cncc(Nc3ccc(-c4ccc(N5CCCC5=O)cc4)cn3)c2)c1` [Example 170, 4-(dimethylamino)-N-(3-(3-oxo-3-((5-((5-(4-(2-oxopyrrolidin-1-yl)phenyl)pyridin-2-yl)amino)pyridin-3-yl)amino)propyl)phenyl)butanamide] are 10 to 100 nM and 10 to 100 nM.
Regarding `COc1cc(Nc2cnc3c(c2)N2C(=O)C4(CC4)C[C@H]2CO3)ncc1-c1ccc(N2CCCC2=O)cc1` [Example 212, (S)-2′-((4-methoxy-5-(4-(2-oxopyrrolidin-1-yl)phenyl)pyridin-2-yl)amino)-6a′,7′-dihydro-6′H,9′H-spiro[cyclopropane-1,8′-pyrido[2,3-b]pyrrolo[1,2-d][1,4]oxazin]-9′-one], the results for the IC50 in experiment [1] and in experiment [2] were 1 to 10 nM and at most 1 nM, respectively.
The corresponding values for `CCOc1ccc(C(=O)Nc2cncc(Nc3ccc(-c4ccc(N5CCCC5=O)cc4)cn3)c2)cn1` [Example 249, 6-ethoxy-N-(5-((5-(4-(2-oxopyrrolidin-1-yl)phenyl)pyridin-2-yl)amino)pyridin-3-yl)nicotinamide] are 10 to 100 nM and 1 to 10 nM.
Turning to `O=C1CCCN1c1ccc(-c2ccc(Nc3cnc4c(c3)N3C(=O)OC[C@H]3CO4)nc2)cc1` [Example 265, (R)-8-((5-(4-(2-oxopyrrolidin-1-yl)phenyl)pyridin-2-yl)amino)-3a,4-dihydro-1H,3H-oxazolo[3,4-d]pyrido[2,3-b][1,4]oxazin-1-one], the IC50 in experiment [1] lay in the range of 10 to 100 nM; in experiment [2], 1 to 10 nM.
The corresponding values for `Cc1cc(-c2ccc(N3CCCC3=O)cc2)cnc1Nc1cnc2c(c1)N1C(=O)CC[C@H]1CO2` [Example 194, (S)-2-((3-methyl-5-(4-(2-oxopyrrolidin-1-yl)phenyl)pyridin-2-yl)amino)-6,6a,7,8-tetrahydro-9H-pyrido[2,3-b]pyrrolo[1,2-d][1,4]oxazin-9-one] are above 1000 nM and above 1000 nM.
The corresponding values for `C[C@@]1(O)C[C@H]2COc3ncc(Nc4ccc(-c5ccc(N6CCCC6=O)cc5)cn4)cc3N2C1=O` [Example 271, (6aS,8R)-8-hydroxy-8-methyl-2-((5-(4-(2-oxopyrrolidin-1-yl)phenyl)pyridin-2-yl)amino)-6,6a,7,8-tetrahydro-9H-pyrido[2,3-b]pyrrolo[1,2-d][1,4]oxazin-9-one] are 10 to 100 nM and 10 to 100 nM.
For `O=C([C@@H]1CCOC1)N1CCN(c2cncc(Nc3ccc(-c4ccc(N5CCCC5=O)cc4)cn3)c2)CC1` [Example 244, (R)-1-(4-(6-((5-(4-(tetrahydrofuran-3-carbonyl)piperazin-1-yl)pyridin-3-yl)amino)pyridin-3-yl)phenyl)pyrrolidin-2-one] the same measures were 10 to 100 nM and 100 to 1000 nM.
With `Nc1nc(Nc2cnc3c(c2)N2C(=O)CC[C@H]2CO3)ncc1-c1ccc(N2CCCC2=O)cc1` [Example 199, (S)-2-((4-amino-5-(4-(2-oxopyrrolidin-1-yl)phenyl)pyrimidin-2-yl)amino)-6,6a,7,8-tetrahydro-9H-pyrido[2,3-b]pyrrolo[1,2-d][1,4]oxazin-9-one], the 50% inhibitory concentration (IC50) in experiment [1] and in experiment [2] was 1 to 10 nM throughout.
Regarding `CN(C)C/C=C/C(=O)Nc1cccc(CCC(=O)Nc2cncc(Nc3ccc(-c4ccc(N5CCCC5=O)cc4)cn3)c2)c1` [Example 169, (E)-4-(dimethylamino)-N-(3-(3-oxo-3-((5-((5-(4-(2-oxopyrrolidin-1-yl)phenyl)pyridin-2-yl)amino)pyridin-3-yl)amino)propyl)phenyl)but-2-enamide], the IC50 in experiment [1] and in experiment [2] was 10 to 100 nM each time.
On to `CC(C)(N)c1cc(Nc2cnc3c(c2)N2C(=O)CC[C@H]2CO3)ncc1-c1ccc(N2CCCC2=O)cc1F` [Example 266, (S)-2-((4-(2-aminopropan-2-yl)-5-(2-fluoro-4-(2-oxopyrrolidin-1-yl)phenyl)pyridin-2-yl)amino)-6,6a,7,8-tetrahydro-9H-pyrido[2,3-b]pyrrolo[1,2-d][1,4]oxazin-9-one], for which the results for the IC50 in experiment [1] and in experiment [2] were 10 to 100 nM and 1 to 10 nM, respectively.
The corresponding values for `COc1nc(Nc2cnc3c(c2)N2C(=O)CC[C@H]2CO3)ncc1-c1ccc(N2CCCC2=O)cc1` [Example 195, (S)-2-((4-methoxy-5-(4-(2-oxopyrrolidin-1-yl)phenyl)pyrimidin-2-yl)amino)-6,6a,7,8-tetrahydro-9H-pyrido[2,3-b]pyrrolo[1,2-d][1,4]oxazin-9-one] are 1 to 10 nM and at most 1 nM.
The corresponding values for `Cc1cc(N2CCCC2=O)ccc1-c1cnc(Nc2cnc3c(c2)N2C(=O)CC[C@H]2CO3)nc1` [Example 198, (S)-2-((5-(2-methyl-4-(2-oxopyrrolidin-1-yl)phenyl)pyrimidin-2-yl)amino)-6,6a,7,8-tetrahydro-9H-pyrido[2,3-b]pyrrolo[1,2-d][1,4]oxazin-9-one] are 1 to 10 nM and 1 to 10 nM.
The corresponding values for `Cc1cc(Nc2cnc3c(c2)N2C(=O)C4(CC4)C[C@H]2CO3)ncc1-c1ccc(N2CCCC2=O)cc1` [Example 206, (S)-2′-((4-methyl-5-(4-(2-oxopyrrolidin-1-yl)phenyl)pyridin-2-yl)amino)-6a′,7′-dihydro-6′H,9′H-spiro[cyclopropane-1,8′-pyrido[2,3-b]pyrrolo[1,2-d][1,4]oxazin]-9′-one] are 10 to 100 nM and 1 to 10 nM.
With `CC1C[C@H]2COc3ncc(Nc4ccc(-c5ccc(N6CCCC6=O)cc5)cn4)cc3N2C1=O` (stereo partly drawn) [Example 259, (6aS)-8-methyl-2-((5-(4-(2-oxopyrrolidin-1-yl)phenyl)pyridin-2-yl)amino)-6,6a,7,8-tetrahydro-9H-pyrido[2,3-b]pyrrolo[1,2-d][1,4]oxazin-9-one], the IC50 in experiment [1] and in experiment [2] was 10 to 100 nM throughout.

For the origin of these results see patent US11667651B2, “Aminopyridine derivatives as phosphatidylinositol phosphate kinase inhibitors” (HiberCell, Inc., priority 2017, dated 2023).
